Assay results published in patent publication US20060110710A1, “Endodontic ozone therapy” (priority 2001, published 2006).

How the values were obtained:
[1] = system: Lactobacillus acidophilus; experiment: Ozone exposure of bacteria cultures (root canals); type: cell-based; conditions: exposed to ozone
Month ulcerations = experiment: Effect of ozone in the treatment of mouth ulcerations; type: in vivo; conditions: exposed to ozone
Lactobacillus salivarius = experiment: Ozone exposure of bacteria cultures (root canals); type: cell-based; conditions: exposed to ozone
[2] = system: Inflamed human gingivitis; experiment: Effect of ozone on gum disease; type: in vivo; conditions: after exposure to ozone
Description: Inflamed human gingivitis is exposed to ozone using the techniques herein described.

[3] = system: Streptococcus sobrinus; TH 21; experiment: Ozone on S. sobrinus on saliva coated glass beads; type: cell-based; conditions: 10 seconds of ozone on saliva coated glass beads
Description: The aims of these studies were to evaluate the efficiency of ozone on primary root caries and associated micro-organisms (Streptococcus sobrinus; TH 21 Streptococcus mutans; NCTC 10449). In study 1, 40 soft primary root carious lesions (PRCLs) from freshly extracted teeth were used and randomly divided into two groups to test the exposure to ozone for either 10 or 20 seconds. There was a significant (p<0.001) difference (Mean±SE) between the control samples for either 10 seconds (log10 5.91±0.15) or 20 seconds (log10 6.18±0.21) and ozone treated samples for either 10 seconds (log10 3.57±0.37) or 20 seconds (log10 3.77±0.42). In study 2, 40 sterile saliva coated glass beads were put into bijoux bottles with 3 mls of Todd Hewitt broth for control and test groups. S. sobrinus and S. mutans were inoculated and incubated anaerobically overnight. Each glass bead was washed with 2 mls of PBS. Immediately, 10 seconds of ozone was applied to the glass beads in the test groups. Subsequently, each glass bead in the test and control groups was placed in 3 mls of Todd Hewitt broth with six more sterile glass beads and were vortexed for 30 seconds. After decimal dilutions, […] were spread on blood agar plates supplemented with 5% (V/V) horse blood and placed in an anaerobic chamber at 37° C. for two days. The number of each colony type was counted and calculated. […]

[4] = system: microorganisms associated with bad breath; experiment: Effect of ozone in the treatment of bad breath; type: in vivo; conditions: mouth exposed to ozone
Description: Bad breath is caused, in part, by the retention and subsequent degradation of dead cellular material, by microorganisms, sloughed off continuously by a normal, healthy mouth.

[5] = system: Microflora from Primary Root Caries; experiment: Ozone effect on microflora from primary root caries ex-vivo; type: cell-based; conditions: for Mean ± SE of Total cfu (Log10): after 10 seconds of ozone treatment
Description: Primary root carious lesions (PRCL) are a major clinical problem. […] An ozone producing generator (Purezone Ltd., Ipswich, U.K.) was used in this ex-vivo study assessing the use of ozone on PRCL. In this study, soft PRCL requiring restoration were used as these are the most severe type of lesion found in humans. 20 freshly extracted teeth with PRCL requiring restoration were used. After plaque removal using a hand held standard fine nylon fiber sterile toothbrush with sterile water as a lubricant to cleanse the surface, each tooth was then isolated using sterile cotton wool rolls and dried using a dry sterile cotton wool roll. […] Each sample was weighed and immediately placed in 1 ml of Fastidious Anaerobe Broth (FAB). […] They were vortexed for 30 seconds to facilitate the extraction of any micro-organisms from the carious dentine and disperse any aggregates. After decimal dilution with FAB, […] of these was spread on Fastidious Anaerobe Agar (LabM, Bury, […].) supplemented with 5% (v/V) horse blood in an anaerobic chamber at 37° C. for four days. The mean±SE number of each colony type was counted and calculated. The procedure of Example 2 was repeated except that ozonized water was applied to the lesion for 20 seconds. […] The aims of these studies were to evaluate the efficiency of ozone on primary root caries and associated micro-organisms (Streptococcus sobrinus; TH 21 Streptococcus mutans; NCTC 10449). […] In study 2, 40 sterile saliva coated glass beads were put into bijoux bottles with 3 mls of Todd Hewitt broth for control and test groups. S. sobrinus and S. mutans were inoculated and incubated anaerobically overnight. Each glass bead was washed with 2 mls of PBS. […] Subsequently, each glass bead in the test and control groups was placed in 3 mls of Todd Hewitt broth with six more sterile glass beads and were vortexed for 30 seconds. After decimal dilutions, […] were spread on blood agar plates supplemented with 5% (V/V) horse blood and placed in an anaerobic chamber at 37° C. for two days. The number of each colony type was counted and calculated. […] This treatment regime is therefore an effective, quick, conservative and simple method to kill micro-organisms in primary root carious lesions.

[6] = 1H NMR evaluation of the oxidative consumption of salivary biomolecules by ozone; conditions: O3 for 30 seconds; unstimulated human saliva 0.60 ml; 1H NMR 600 MHz
Description: Ozone is one of nature's most powerful oxidants which accounts for its ability to kill bacteria, spores and viruses. Uniquely, ozone decomposes to a harmless, non-toxic and environmentally safe material (oxygen). In this investigation, a multicomponent evaluation of the oxidative consumption of salivary biomolecules by ozone (O3) has been performed using high resolution proton (^1H) nuclear magnetic resonance (NMR) spectroscopy. The ozone-generating equipment employed in this study was designed by Purezone Ltd. (Ipswich, U.K.). Unstimulated human saliva samples were collected from 8 patients and each of them was divided into two equivalent portions (0.60 ml). The first of these was treated with O3 generated from the above device for a period of 30 seconds; the second group of portions served as controls. Samples were subjected to ^1H NMR analysis at an operating frequency of 600 MHz. […] High field ^1H NMR spectroscopy provides much useful analytical data regarding the fate of O3 in human saliva, information which is of much relevance to its potential therapeutic actions in vivo.

[7] = Ozone exposure of bacteria cultures (root canals); type: cell-based, Streptococcus aurous; conditions: exposed to ozone

For `O=[O+][O-]` [ozone], the “growth of the bacteria cultures” value [1] was “eliminated or inhibited”, the “enzyme levels in the month ulcerations” value (Month ulcerations) was “alleviated and/or reduced” and the “microorganisms in the ulceration” value (Month ulcerations) was “eliminated or reduced”. For the same compound, the “growth of the bacteria cultures” value (Lactobacillus salivarius) was “eliminated or inhibited”, the “enzyme levels in extracts from inflamed human gingiva” value [2] was “alleviated and/or reduced” and the “colony count, log10, Mean±SE” value [3] was 1.09±0.36 log10. For the same compound, the “enzyme levels in the month” value [4] was “alleviated and/or reduced”, the “microorganisms associated with bad breath” value [4] was “eliminated or reduced” and the “percentage of micro-organisms killed” value ([5]; 10 seconds of ozone treatment) was “more than 99%”. The “Mean ± SE of Total cfu (Log10)” value ([5]; soft PRCL of freshly extracted teeth) was 3.57±0.37 Log10, the “Mean ± SE of Total cfu (Log10)” value ([5]; soft PRCL of freshly extracted teeth, listed as Ozone) was 3.57 ± 0.37 Log10 and the “Total cfu, log10, mean±SE” value ([5]; after 20 seconds of ozone treatment, soft PRCL of freshly extracted teeth) was 3.77±0.42 log10. For the same compound, the “effect of O3 treatment on salivary 3-D-hydroxybutyrate” value [6] was “evidence for the O3-mediated oxidation of salivary 3-D-hydroxybutyrate”, the “effect of O3 treatment on salivary methionine” value [6] was “oxidation of the volatile sulphur compound precursor methionine to its corresponding sulphoxide” and the “effect of O3 treatment on salivary polyunsaturated fatty acids” value [6] was “oxidative consumption of salivary polyunsaturated fatty acids”. For the same compound, the “effect of O3 treatment on salivary pyruvate” value [6] was “oxidative decarboxylation of the salivary electron-donor pyruvate” and the “growth of the bacteria cultures” value [7] was “eliminated or inhibited”.
